Experimental data reported in patent US20240292836A1, “AGENTS FOR REPELLING, KNOCKING DOWN, AND/OR KILLING BLOOD-SUCKING ARTHROPODS AND USES THEREOF” (The United States of America, as represented by the …, priority 2023, published 2024).
Several values for one entry are separate records, joined by “and”; a condition that tells them apart may be missing. Equal entries are not always repeated.

How the values were obtained:
[1] = test system: female Aedes aegypti adults; experiment: High-throughput in vitro screening assay, knockdown and mortality; details: dose per assay tube volume, 95% CI
[2] = test system: female Aedes aegypti adults; experiment: Arm-in-cage cloth-patch in vivo assay (topical repellency); details: Mean ± SEM; lowest dosage with five or fewer bites through repellent-treated cloth in 1-minute exposure; at least three volunteers
Summary of the method: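 Starved 3–7-day-old female Ae. aegypti (Orlando strain), about 200 per cage. Cloth patches (50 cm^2) were soaked with 1 mL of solution, air-dried about 15 min and worn over a nylon stocking on volunteers' arms. MED, the lowest concentration preventing biting, was averaged over at least three subjects with at least 3 replicates (±SEM).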

[3] = test system: female Aedes aegypti adults; details: estimated from a previous report (Licciardi 2006); cited from earlier work
[4] = test system: female Aedes aegypti adults; experiment: High-throughput in vitro screening assay, spatial repellency; format: in vivo; details: 60 minutes, dose of 100 μg/cm^2
Summary of the method: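 Female Aedes aegypti aged 2-7 days, 16 per glass tube, between acetone-treated and compound-treated filter papers they could not touch. Counts on the treated side at 15, 30 and 60 min; RD50 (μg/cm^2 paper) from 4-parameter log-logistic fits with asymptotes fixed at 0.5 and 0.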

For `CCN(CC)C(=O)c1cccc(C)c1` [DEET, N,N-diethyl-meta-toluamide, reference compound], the “KD50 (30 min), half-knockdown dose” value ([1]; 30 min) was greater than 15 µg/mL, the “KD50 (60 min), half-knockdown dose” value ([1]; 60 min) was greater than 15 µg/mL and the “Minimum Effective Dose (MED)” value [2] was 0.0100±0.003 mg/cm^2 and 0.0100 mg/cm^2. The “dose at which knockdown might begin” value [3] was “approximately 15 μg/cm^3” and the mosquitoes repelled [4] was 100%.
